# Data as given in patent publication US8614207B2, “Inhibitors of hepatitis C virus” (Presidio Pharmaceuticals, Inc., priority 2010, dated 2013).
# System: HCV1b replication (bicistronic genotype 1b replicon in Huh 7 cells)
# Assay: HCV replicon assay, 1b_Huh-Luc/Neo-ET cell line, luciferase readout
# Assay type: cell-based, HCV genotype 1b
# Conditions: Hepatitis C virus, Group 1 / Group 2, read-out: EC50, concentration effective to produce a half-maximal inhibition of HCV1b replication
# Protocol: Biological activity of the compounds of the invention was determined using an HCV replicon assay. The 1b_Huh-Luc/Neo-ET cell line persistently expressing a bicistronic genotype 1b replicon in Huh 7 cells was obtained from ReBLikon GMBH. This cell line was used to test compound inhibition using luciferase enzyme activity readout as a measurement of compound inhibition of replicon levels.
# On Day 1 (the day after plating), each compound is added in triplicate to the cells. Plates incubated for 72 […] prior to running the luciferase assay. Enzyme activity was measured using a Bright-Glo Kit (cat. number E2620) manufactured by Promega Corporation. The following equation was used to generate a percent control value for each compound. % Control=(Average Compound Value/Average Control)*100
# The EC50 value was determined using GraphPad Prism and the following equation: Y=Bottom+(Top−Bottom)/(1+10^((Log IC50−X)*HillSlope))
# EC50 values of compounds are repeated several times in the replicon assay.
row,Structure (SMILES),EC50 [nM]
1,CNC(=O)c1c(-c2ccc(F)cc2)oc2cc3c(cc12)C(C)OCCN3S(C)(=O)=O (centres unmarked) [Compound B22],10 to 100
2,CNC(=O)c1c(-c2ccc(F)cc2)oc2cc3c(cc12)[C@H](C)OCCN3S(C)(=O)=O [Compound B45],≤ 10
3,CNC(=O)c1c(-c2ccc(Oc3ccc(F)cc3)cc2)oc2cc3c(cc12)C(C)OC(CS(C)(=O)=O)CN3S(C)(=O)=O (centres unmarked) [Compound B192],≤ 10
4,CNC(=O)c1c(-c2ccc(F)cc2)oc2cc3c(cc12)[C@@H](C)O[C@H](CS(C)(=O)=O)CN3S(C)(=O)=O [Compound B215],10 to 100
5,CNC(=O)c1c(-c2ccc(Oc3ccc(F)cc3)cc2)oc2cc3c(cc12)[C@@H](C)O[C@H](CS(C)(=O)=O)CN3S(C)(=O)=O [Compound B216],10 to 100
